Experimental data published in patent publication US8623883B2, “4-phenylamino-quinazolin-6-yl-amides” (Warner-Lambert Company LLC, priority 2004, dated 2014).
pIC50: −log10 of the molar value. In brackets after ≈: the same amount, converted by molar mass.

Key:
ErbB4 = ErbB4 (Homo sapiens, UniProt Q15303); assay: ELISA-based erbB kinase assay (ErbB4); type: biochemical; conditions: GST-erbB4 cytoplasmic fusion protein, 20 uM ATP, poly-Glu-Tyr substrate
Description: (§1) ErbB1, erbB2 and erbB4 cytoplasmic fusion proteins were made by cloning the erbB1 sequence (Met-668 to Ala1211), erbB2 (Ile-675 to Val-1256) and erbB4 sequence (Gly-259 to Gly-690) into the baculoviral vector pFastBac using Polymerase Chain Reaction (PCR). Proteins were expressed in Baculovirus-infected Sf9 insect cells as Glutathione S-Transferase (GST) fusion proteins. The proteins were purified by affinity chromatography using glutathione sepharose beads.
(§2) Inhibition of erbB tyrosine kinase activity was assessed using an ELISA-based receptor tyrosine kinase assay. Kinase reactions (50 mM HEPES, pH 7.4, 125 mM NaCl, 10 mM MgCl2, 100 μM sodium orthovanadate, 2 mM dithiothreitol, 20 uM ATP, test compound or vehicle control and 1-5 nM GST-erbB per 50 uL reaction) were run in 96-well plates coated with 0.25 mg/ml poly-Glu-Tyr (Sigma). The reactions were incubated for 6 minutes at room temperature while shaking. Kinase reactions were stopped by removal of reaction mixture, then wells were washed with wash buffer comprising 3% Bovine Serum Albumin and 0.1% Tween 20 in Phosphate Buffered Saline (PBS). Phosphorylated tyrosine residues were detected by adding 0.2 μg/ml anti-phosphotyrosine antibody (Oncogene Ab-4; 50 μL/well) coupled to Horse Radish Peroxidase (HRP) for 25 minutes while shaking at room temperature. The antibody was removed, and plates were washed (3% BSA and 0.1% Tween 20 in PBS). HRP substrate 3,3′,5,5′-tetramethylbenzidene (SureBlueTMB, Kirkegaard & Perry Labs) was added (50 μL per well) and incubated for 10-20 minutes while shaking at room temperature. The TMB reaction was stopped with the addition of 50 μL stop solution (0.09 N H2SO4). The signal was quantified by measuring absorbance at 450 nm. IC50 values were determined for test compounds using Microsoft Excel.

ErbB1 = ErbB1 (Homo sapiens (Human), UniProt P00533); assay: ELISA-based erbB kinase assay (ErbB1); type: biochemical; conditions: GST-erbB1 cytoplasmic fusion protein, 20 uM ATP, poly-Glu-Tyr substrate
Description: as §1, §2

ErbB2 = ErbB2 (Homo sapiens (Human), UniProt P04626); assay: ELISA-based erbB kinase assay (ErbB2); type: biochemical; conditions: GST-erbB2 cytoplasmic fusion protein, 20 uM ATP, poly-Glu-Tyr substrate
Description: as §1, §2

Aqueous solubility = type: physicochemical

ErbB1, sequence (P00533 668-1210 limits assumed): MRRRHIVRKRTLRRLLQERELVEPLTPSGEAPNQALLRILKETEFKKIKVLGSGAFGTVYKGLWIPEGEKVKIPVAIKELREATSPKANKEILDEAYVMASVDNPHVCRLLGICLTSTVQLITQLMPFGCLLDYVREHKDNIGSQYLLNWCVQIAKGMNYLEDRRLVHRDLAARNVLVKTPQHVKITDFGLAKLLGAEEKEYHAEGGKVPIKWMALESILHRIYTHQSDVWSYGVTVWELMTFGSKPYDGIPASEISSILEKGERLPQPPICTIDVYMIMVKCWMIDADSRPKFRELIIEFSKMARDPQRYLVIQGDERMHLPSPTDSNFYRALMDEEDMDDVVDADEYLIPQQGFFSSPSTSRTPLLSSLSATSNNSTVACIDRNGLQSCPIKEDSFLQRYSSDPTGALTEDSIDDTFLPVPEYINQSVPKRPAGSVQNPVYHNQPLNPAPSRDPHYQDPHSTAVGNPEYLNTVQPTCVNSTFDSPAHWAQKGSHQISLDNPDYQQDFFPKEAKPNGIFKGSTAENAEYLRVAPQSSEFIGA
ErbB4, sequence (Q15303 26-1308 limits assumed): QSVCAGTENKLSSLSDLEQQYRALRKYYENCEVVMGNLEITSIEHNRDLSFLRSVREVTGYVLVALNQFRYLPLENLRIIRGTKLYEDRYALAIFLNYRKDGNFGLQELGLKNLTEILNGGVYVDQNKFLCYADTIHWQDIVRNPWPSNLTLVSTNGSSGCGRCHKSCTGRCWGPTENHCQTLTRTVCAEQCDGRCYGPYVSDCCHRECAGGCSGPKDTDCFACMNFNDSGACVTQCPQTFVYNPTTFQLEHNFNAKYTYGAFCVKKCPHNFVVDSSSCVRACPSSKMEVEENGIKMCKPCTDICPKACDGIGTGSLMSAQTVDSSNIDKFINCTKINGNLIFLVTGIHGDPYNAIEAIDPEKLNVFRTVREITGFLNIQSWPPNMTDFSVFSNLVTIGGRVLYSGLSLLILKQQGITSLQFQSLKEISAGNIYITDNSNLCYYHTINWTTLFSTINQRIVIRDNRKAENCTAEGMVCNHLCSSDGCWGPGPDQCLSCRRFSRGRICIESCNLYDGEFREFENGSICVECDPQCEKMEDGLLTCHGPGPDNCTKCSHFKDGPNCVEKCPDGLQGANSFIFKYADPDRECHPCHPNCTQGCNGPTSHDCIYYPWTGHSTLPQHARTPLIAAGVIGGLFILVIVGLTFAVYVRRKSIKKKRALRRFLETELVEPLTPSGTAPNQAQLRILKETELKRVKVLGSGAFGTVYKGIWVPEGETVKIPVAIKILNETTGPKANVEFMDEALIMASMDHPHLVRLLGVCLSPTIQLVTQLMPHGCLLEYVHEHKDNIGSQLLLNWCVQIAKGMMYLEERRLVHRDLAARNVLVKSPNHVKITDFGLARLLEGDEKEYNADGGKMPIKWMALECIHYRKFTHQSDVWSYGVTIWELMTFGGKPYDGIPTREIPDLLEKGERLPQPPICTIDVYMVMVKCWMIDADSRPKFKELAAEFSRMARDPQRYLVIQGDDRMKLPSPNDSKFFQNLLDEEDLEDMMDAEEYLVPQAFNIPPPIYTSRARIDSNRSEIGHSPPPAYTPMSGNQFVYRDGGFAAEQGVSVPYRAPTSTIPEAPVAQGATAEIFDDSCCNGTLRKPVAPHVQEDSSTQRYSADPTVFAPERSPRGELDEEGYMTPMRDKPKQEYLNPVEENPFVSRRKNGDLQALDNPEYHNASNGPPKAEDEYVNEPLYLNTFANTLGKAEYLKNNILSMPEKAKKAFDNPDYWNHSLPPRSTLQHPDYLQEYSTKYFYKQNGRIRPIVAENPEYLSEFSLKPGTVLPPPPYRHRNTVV
ErbB2, sequence (P04626 675-1255 limits assumed): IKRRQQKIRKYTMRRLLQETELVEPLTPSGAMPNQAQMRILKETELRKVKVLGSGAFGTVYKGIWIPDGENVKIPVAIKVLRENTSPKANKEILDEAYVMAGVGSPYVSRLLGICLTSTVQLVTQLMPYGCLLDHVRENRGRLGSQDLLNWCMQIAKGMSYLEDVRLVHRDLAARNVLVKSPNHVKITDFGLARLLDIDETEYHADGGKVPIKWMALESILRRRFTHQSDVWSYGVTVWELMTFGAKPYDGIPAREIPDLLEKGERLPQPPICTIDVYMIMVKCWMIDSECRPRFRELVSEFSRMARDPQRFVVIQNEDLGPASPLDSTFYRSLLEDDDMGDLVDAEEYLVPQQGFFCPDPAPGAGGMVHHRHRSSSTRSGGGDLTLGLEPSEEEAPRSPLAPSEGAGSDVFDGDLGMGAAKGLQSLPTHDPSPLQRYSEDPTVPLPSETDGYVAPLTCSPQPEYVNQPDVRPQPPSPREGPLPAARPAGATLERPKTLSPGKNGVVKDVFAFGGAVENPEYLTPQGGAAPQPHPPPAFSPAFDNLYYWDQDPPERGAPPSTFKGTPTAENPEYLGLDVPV

pIC50 (ErbB4) | pIC50 (ErbB1) | pIC50 (ErbB2) | solubility (Aqueous solubility; aqueous medium, pH 6.3, aqueous buffer) [µg/mL] | change of aqueous solubility with pH (Aqueous solubility; at lower pHs (than 6.3)) | Structure (SMILES)
7.21 | 7.95 | – | – | – | O=C(/C=C/CN1CCCCC1)Nc1cc2c(Nc3ccc(F)c(Cl)c3)ncnc2cc1OCCCN1CCOCC1 [Example No. 7, 4-Piperidin-1-yl-but-2-enoic acid [4-(3-chloro-4-fluoro-phenylamino)-7-(3-morpholin-4-yl-propoxy)-quinazolin-6-yl]-amide]
6.83 | – | 6.61 | – | – | COc1cc2ncnc(Nc3ccc(F)c(Cl)c3)c2cc1NC(=O)/C=C/CN1CCC(F)CC1 [Example No. 9, 4-(4-Fluoro-piperidin-1-yl)-but-2-enoic acid [4-(3-chloro-4-fluoro-phenylamino)-7-methoxy-quinazolin-6-yl]-amide]
– | – | – | ~10 (≈ 21.3 µM) | increases | COc1cc2ncnc(Nc3ccc(F)c(Cl)c3)c2cc1NC(=O)/C=C/CN1CCCCC1 [Example No. 2, 4-Piperidin-1-yl-but-2-enoic acid [4-(3-chloro-4-fluoro-phenylamino)-7-methoxy-quinazolin-6-yl]-amide]
6.81 | 8.01 | 6.61 | – | – | O=C(/C=C/CN1CCCCC1)Nc1cc2c(Nc3ccc(F)c(Cl)c3)ncnc2cc1OCC(F)F [Example No. 6, 4-Piperidine-1-yl-but-2-enoic acid [4-(3-chloro-4-fluoro-phenylamino)-7-(2,2-difluoro-ethoxy)-quinazolin-6-yl]-amide]
7.38 | 7.92 | 7.07 | – | – | COc1cc2ncnc(Nc3ccc(F)c(Cl)c3)c2cc1NC(=O)/C=C/CN1CCCCCC1 [Example No. 10, 4-Azepan-1-yl-but-2-enoic acid [4-(3-chloro-4-fluoro-phenylamino)-7-methoxy-quinazolin-6-yl]-amide]
7.11 | 8.19 | – | – | – | O=C(/C=C/CN1CCCCC1)Nc1cc2c(Nc3ccc(F)c(Cl)c3)ncnc2cc1OCCF [Example No. 1, 4-Piperidin-1-yl-but-2-enoic acid [4-(3-chloro-4-fluoro-phenylamino)-7-(2-fluoro-ethoxy)-quinazolin-6-yl]-amide]
6.63 | 7.34 | 6.67 | – | – | COc1cc2ncnc(Nc3ccc(F)c(Cl)c3)c2cc1NC(=O)/C=C/CN1CCCC(F)C1 (centres unmarked) [Example No. 8, 4-(3-Fluoro-piperidin-1-yl)-but-2-enoic acid [4-(3-chloro-4-fluoro-phenylamino)-7-methoxy-Quinazolin-6-yl]-amide]
